From US11649245B2, “Cyclopropylamine compound as LSD1 inhibitor and use thereof” (HELIOEAST PHARMACEUTICAL CO., LTD., priority 2018, dated 2023) come the findings set out here.

In general, TGI refers to the reduction of tumour growth relative to the control group.

The test relates to human small cell lung cancer NCI-H1417 xenograft tumor model. The experiment in a line: In vivo pharmacodynamic study on NCI-H1417 subcutaneous xenograft tumor in CB-17 SCID mice. The settings on record: compound 6 hydrochloride 1.5 mg/kg oral once a day, cisplatin 1 mg/kg i.p. twice a week. On the procedure:
The purpose of the experiment was to evaluate the in vivo efficacy of the compounds of the present disclosure on subcutaneous xenograft tumor of human small cell lung cancer NCI-H1417 cells in a CB-17 SCID mouse model.
Human small cell lung cancer NCI-H1417 cells (ATCC) were cultured in vitro in a single layer, the culture conditions were RPMI-1640 culture medium supplemented with 10% fetal bovine serum, 37° C. 5% CO2. When the cell saturation reached 80%-90%, the cells were collected, counted, and inoculated.
0.2 mL of 10×10^6 NCI-H1417 cells were subcutaneously inoculated into the right back of each mouse (PBS: Matrigel=1:1). Group administration was started when the average volume reached 100-150 mm^3.
The vehicle used in the experiment was 0.5% methylcellulose solution, the preparation method was: 5 g of methylcellulose was weighed and dissolved in 800 mL ultrapure water, stirred evenly and made up to 1000 mL with ultrapure water. The test substance was dissolved in a solvent and prepared into a uniform solution of a certain concentration, and stored at 4° C.
Cisplatin (Cisplatin, manufacturer Qilu Pharmaceutical Co., Ltd., 10 mg/bottle freeze-dried powder for injection, lot number 7D011A8) was added to 10 mL 0.9% NaCl to make a 1 mg/mL mother liquor, and stored at room temperature and protected from light. The mother liquor was aliquoted into 0.63 mL and stored at room temperature. 5.67 mL 0.9% NaCl was added to one of the 0.63 mL mother liquor to make a 0.1 mg/mL solution.
The experimental indicator is to investigate whether tumor growth was inhibited, delayed, or cured. Tumor diameters were measured with a vernier caliper twice a week. The tumor volume was calculated by the calculation formula: V=0.5a×b^2, a and b respectively represent the long and short diameters of the tumor.
The anti-tumor effect of the compounds was evaluated by TGI (%). TGI (%) can reflect the tumor growth inhibition rate. TGI (%) calculation: TGI (%)=[1-(the average tumor volume at the end of the administration in a treatment group—the average tumor volume at the beginning of the administration in the treatment group)/(the average tumor volume at the end of the treatment of the solvent control group—the average tumor volume at the beginning of the treatment of the solvent control group)]×100%.

As for `N.N.[Cl][Pt][Cl]` [Cisplatin, reference compound], the “Tumor volume mean ± SEM (28th day)” value (CB-17 SCID mice) came out at 165 ± 22 mm^3. This molecule had a TGI (tumor growth inhibition rate, 28th day) of 85.9%.
